The source made the active and inactive calls. The rule behind the calls is not given here.
What was measured:
Rattus norvegicus [1] = organism: Rattus norvegicus; assay: Compound was tested for in vitro activity of luteolysis on corpora lutea from pseudopregnant rats; assay type: functional; settings: read-out: ED50 (the source's name)
Rattus norvegicus [2] = organism: Rattus norvegicus; assay: Compound was tested for in vitro activity of luteolysis on corpora lutea from pseudopregnant rats; inactive; assay type: functional

| EC50 (Rattus norvegicus [1]) [µM] | SMILES | ED50 (Rattus norvegicus [2]) |
| --- | --- | --- |
| 65 | Cc1cccc2nc(-c3ccc4c(c3)OCO4)nn12 |  |
|  | Cc1cccc2nc(-c3ccccc3)nn12 | inactive |

Reference: ChEMBL document CHEMBL1134899, “Non-steroidal pregnancy-terminating agents: design, synthesis and structure-activity relationships of 2-aryl-1,2,4-triazolo[1,5-a]pyridine” (2002)
